Results reported in patent US9150902B2, “Method for determination of N-deacetylase/N-sulfotransferase activity” (SEIKAGAKU CORPORATION, priority 2005, dated 2015).

Legend:
[1] = biological target: T1, NDST2 (ND activity) (Homo sapiens, UniProt P52849); experiment: Screening of ND activity inhibitors using the plate to which NAH-biotin was adhered via avidin (JM403 ELISA); format: biochemical; details: final concentration 100, 10 or 1 μg/ml; for ranking of ability to inhibit ND activity among NAH, HP, NSDS-HP and HSBK: FIG. 8; for function to inhibit ND activity (rate of change, FIG. 8): NDST enzyme liquid 80 times diluted, 37° C. 60 minutes
T1 construct: baculovirus gp67 signal peptide (39 amino acids) (N, cleaved yes); made in house; host or cells: Sf21 insect cells infected with recombinant baculovirus (virus stock made in Sf9)
T1 sequence (P52849 79-883): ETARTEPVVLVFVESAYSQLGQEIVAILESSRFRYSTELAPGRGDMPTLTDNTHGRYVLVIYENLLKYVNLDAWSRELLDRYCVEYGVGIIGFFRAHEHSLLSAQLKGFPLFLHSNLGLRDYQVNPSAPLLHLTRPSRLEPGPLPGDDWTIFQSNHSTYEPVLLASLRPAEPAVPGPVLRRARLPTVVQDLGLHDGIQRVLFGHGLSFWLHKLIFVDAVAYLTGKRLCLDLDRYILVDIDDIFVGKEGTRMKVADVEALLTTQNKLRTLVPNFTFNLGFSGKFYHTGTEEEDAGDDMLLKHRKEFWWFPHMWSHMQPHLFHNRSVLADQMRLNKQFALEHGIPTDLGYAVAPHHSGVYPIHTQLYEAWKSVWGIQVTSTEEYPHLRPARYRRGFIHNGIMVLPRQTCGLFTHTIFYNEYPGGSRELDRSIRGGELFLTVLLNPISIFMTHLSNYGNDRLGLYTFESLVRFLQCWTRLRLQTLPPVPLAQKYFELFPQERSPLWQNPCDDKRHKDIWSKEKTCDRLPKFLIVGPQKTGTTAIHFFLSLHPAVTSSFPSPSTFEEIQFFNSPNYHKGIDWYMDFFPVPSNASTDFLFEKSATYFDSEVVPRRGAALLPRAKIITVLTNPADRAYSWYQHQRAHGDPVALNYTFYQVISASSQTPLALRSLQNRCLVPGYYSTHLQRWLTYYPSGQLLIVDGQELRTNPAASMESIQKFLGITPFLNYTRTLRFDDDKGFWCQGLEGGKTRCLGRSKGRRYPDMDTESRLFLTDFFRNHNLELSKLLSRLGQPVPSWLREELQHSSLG
Method: Each of the following 6 substances to be tested was diluted to 200, 20 or 2 μg/ml using the enzyme reaction liquid 1. Quickly after addition of 25 μl of the solutions to each well of the solid phase (plate) produced in Example 9, 25 μl of an “NDST enzyme liquid diluted 40 times with the enzyme reaction liquid I” was added to each well (final concentration of each substance to be tested 100, 10 or 1 μg/ml, final dilution rate of the enzyme liquid 80 times).
Thereafter, the enzyme reaction was effected by standing still at 37° C. for 60 minutes. In this connection, the enzyme reaction liquid 1 alone was added to the wells to which the substances to be tested were not added.
After completion of the reaction, the wells were washed three times with T-TBS and 100 μl of a solution of the monoclonal antibody JM403 (Seikagaku Corporation) adjusted to 1 μg/ml with TBS was added to each well. Thereafter, the plate was allowed to stand still at ordinary temperature (15 to 25° C.) for 60 minutes to undergo the antigen-antibody reaction. After the reaction, the wells were washed three times with T-TBS, and 100 μl of the HRP-labeled goat anti-mouse immunoglobulin G+M antibody diluted 20000 times with TBS was added to each well. Thereafter, the plate was allowed to stand still at ordinary temperature for 60 minutes to undergo the antigen-antibody reaction.
After the reaction, this plate was washed three times with T-TBS, and 100 μl of the TMB solution was added to each well and allowed to undergo the reaction at ordinary temperature for 30 minutes to develop a color. Thereafter, the reaction was terminated by adding 100 μl of the reaction terminating liquid to each well, and then the absorbance was measured by the same method described in Example 5. Also, the rate of change (%) was calculated by the following calculation formula. Rate of change(%)=100×((the value of absorbance when each substance to be tested is not added)−(the value of absorbance when each substance to be tested at respective concentration is added))/(the value of absorbance when each substance to be tested is not added).
In this connection, since the monoclonal antibody JM403 binds to the GlcN residues in NAH (that is, de-N-acetylated GlcNAc residue), higher value of the detected absorbance means that the number of GlcN residues in NAH is larger (that is, the number of de-N-acetylated GlcNAc residues is larger), namely the ND activity is higher. On the contrary, lower value of the detected absorbance means that the number of GlcN residues in NAH is smaller (that is, the number of de-N-acetylated GlcNAc residues is smaller), namely the ND activity is low.
Additionally, when a substance to be tested inhibits ND activity, the aforementioned rate of change (%) becomes a positive number. Also, higher value of the rate of change means higher ability of the substance to be tested to inhibit ND.

[2] = test system: monoclonal antibody F58-10E4; experiment: Inhibition method: monoclonal antibody F58-10E4 binding to HSBK-adhered plate in presence of N-sulfated heparosan; details: 20 μg/well; F58-10E4 1 μg/mL; lot as prepared
Method: A polysaccharide in which biotin is bound to the reducing end of HSBK was prepared using HSBK instead of NAH and in accordance with the method described in Example 1(3). Next, this was adhered to a plate in accordance with the method described in Example 9.
The monoclonal antibody F58-10E4 (final concentration: 1 μg/mL) and the 9 lots of N-sulfated heparosan (20 μg/well; a value corrected based on the uronic acid content obtained by the carbazole method) were added to the plate to which HSBK was adhered to effect the antigen-antibody reaction under the conditions described in Example 7, and the absorbance was measured by the method described in Example 7. This is a measurement by a so-called inhibition method. When concentration of the N-sulfated heparosan in the antigen-antibody reaction liquid is 0, substantially all of the monoclonal antibody F58-10E4 binds to the adhered HSBK and the detected absorbance becomes high.
By regarding the absorbance when concentration of the N-sulfated heparosan in the antigen-antibody reaction liquid is 0 as “inhibition rate 0%”, and the absorbance when excess concentration of N-sulfated heparosan is present in the antigen-antibody reaction liquid as “inhibition rate 100%”, the inhibition ratio was calculated on the 9 lots of N-sulfated heparosan. […]
The inhibition rates of these substances were also calculated in the same manner. […]

| ranking of ability to inhibit ND activity among NAH, HP, NSDS-HP and HSBK [1] | Inhibition rate (%) No treatment [2] [%] | Substance | function to inhibit ND activity (rate of change, FIG. 8) [1] |
| --- | --- | --- | --- |
| highest ability to inhibit ND activity | 99 | Bovine kidney-derived HS [HSBK] | inhibit ND activity concentration-dependently |
|  |  | Cockscomb-derived hyaluronic acid [HA] | hardly possessed of the function to inhibit ND activity |
| lowest ability to inhibit ND activity |  | N-acetyl heparosan [NAH] | inhibit ND activity concentration-dependently |
|  |  | N-sulfated/completely de-O-sulfated HP [NSDS-HP] | inhibit ND activity concentration-dependently |
|  |  | Partially de-N-acetylated NAH [PDNAC-NAH] | hardly possessed of the function to inhibit ND activity |
|  |  | Swine small intestine-derived HP | inhibit ND activity concentration-dependently |
